The subject of series [1] is CPP32 caspase and poly-ADP-ribose polymerase in Hep3B cancer cells. The experiment in a line: Western blot of CPP32 caspase activation and poly-ADP-ribose polymerase cleavage. It is filed as cell-based, human. To be noted: mycolactone final 1 μg/ml. How it is done: CPP32 caspase activation and following cleavage of poly-ADP-ribose polymerase, typical biochemical phenomena of apoptosis, were examined by Western-blotting. Hep3B cancer cells (5×10^6) were cultured and treated with mycolactone (final 1 μg/ml). Cells were collected after 2, 4, 8, 12, 24, or 48 hours and Western blot was performed with anti-CPP32 antibody (Oncogene, Mass., USA) or anti-poly-ADP-ribose polymerase antibody (Enzyme Systems Products, CA, USA). Protein preparation was performed as follows. Cells were suspended in 400 μl of lysis buffer (125 mM Tris-HCl [pH 6.8], 20% glycerol, 2% SDS, and 10% β-mercaptoethanol), vortexed for 30 seconds, and kept at 95° C. for 5 minutes Cell lysates were separated on a 10% SDS-polyacrylamide gel and transferred to nitrocellulose membrane. Antibody reaction was performed with the antibodies describe above. CPP32 caspase activation was started at 4 hours and maintained until 24 hours, while the cleavage of poly-ADP-ribose polymerase was started at 8 hours after mycolactone treatment. […] Pro-CPP32 and Active CPP32 as shown on left are CPP32 caspase (the caspase 3) before and after activation, respectively; PARP is poly-ADP-ribose polymerase; cleaved PARP is cleaved poly-ADP-ribose polymerase.

For the next series, the system named is Hep3B cancer cells. The experiment in a line: Morphological change by transmission electron microscopy. It is filed as cell-based, human. To be noted: mycolactone 1 μg/ml, 24 hours. How it is done: Morphological change of Hep3B cancer cells was observed by transmission electron microscopy (hereinafter, TEM) Cancer cells (5×10^6) were cultured and treated with mycolactone (1 μg/ml). Cell were collected after 24 hours and fixed with 2.5% glutaraldehyde. The sample was treated with OsO4, dehydrated with ethanol, and embedded to […].

Another series has as its system murine L929 cell line. Conditions: cited from earlier work.
In series [2] the test system is Hep3B human hepatoma cells transplanted to nude mice. The experiment in a line: In vivo anticancer effect in nude mice. How it is done: Hep3B human hepatoma cells were transplanted to nude mice and tumor growth was induced for 2 to 3 weeks. Then, mycolactone was injected to the tumor tissue by 4-3 days method, that is, injection for 4 days and rest for 3 days. PBS solution (50 μl) with or without mycolactone (20 μg) was injected to tumor of treatment (T) or control (C) mouse, respectively. The tumor volume was estimated by measuring both long and short diameters. The tumor volume at the day of first injection was 101.3 mm^3 (C) or 105.9 mm^3 (T).

The subject of series [3] is bcl-2 family genes in Hep3B cells. Put plainly: Ribonuclease protection assay (RPA) of bcl-2 family gene mRNA. Format: cell-based, human. How it is done:
To find target genes of mycolactone, mRNA transcription levels of bcl-2 family genes were examined. Total RNA was prepared from mycolactone-treated Hep3B cells and the expression of 7 genes belonging to bcl-2 family by ribonuclease protection assay (RPA). Total RNA was prepared with RNeasy minikit (Qiagen Inc., Chatsworth, Calif.) as described below. Mycolactone treated cancer cells were collected and washed with PBS. Cells were suspended in lysis buffer containing β-mercaptoethanol. Cells were passed through a 20-G syringe for more than 5 times. Equal volume of 70% ethanol was added and the suspension was mixed well. The suspension was applied to RNeasy mini spin column. The column was centrifuged at 10,000 rpm for 15 seconds and washed 2 times with washing buffer plus PRE buffer. RNA attached to the column was eluted with RNase-free distilled water. RNA was stored at −70° C. before use.
The mRNA expression profile of bcl-2 family genes was examined by RPA using multi-probe RNase Protection Assay System (PharMingen, CA, USA) with the following procedures. Specific RNA probe labeled with radioisotope is synthesized and used for hybridization with the RNA prepared from each sample. After removal of single-stranded RNA that is not hybridized with the probe and the residual riboprobe, the sample is electrophoresed on a denaturing polyacrylamide gel. After autoradiography, the mRNA expression was analyzed through measuring the density of hybridized bands.
RPA is a 3-Step Procedure
1). Synthesis of probe: Probe is synthesized by incubating transcription mixture solution ([…], 1 μl GACU pool, 2 μl DTT, 4 μl 5× transcription buffer, 1 μl RPA template set, 1 μlA T7 polymerase) at 37° C. for 1 hour. The reaction was stopped by adding 2 μl of DNase. Probe synthesis was completed by phenol treatment and ethanol precipitation The precipitated probe was dissolved in 50 μl of hybridization buffer.
2) RNA preparation and hybridization: Total RNA prepared (10-20 μg) was kept at −70° C. for 15 minutes and dried completely in vacuum evaporator. Hybridization was performed by the following reactions; addition of 8 μl of hybridization buffer, vortexing and brief centrifuge; addition and mixing of 2 μl of probe diluted at about 3×10^5 cpm/μl; addition of mineral oil. Hybridization mixture was kept briefly at 90° C., then incubated at 56° C. for 12 to 16 hours. Hybridization was completed by incubating the mixture at 37° C. for 15 minutes.
3) RNase treatment, electrophoresis, and autoradiography: RNase mixture (100 μl) was added to the hybridization mixture and the non-hybridized RNA was removed by incubating at 30° C. for 45 minutes. RNase digestion was terminated by adding proteinase K mixture solution. After phenol treatment and ethanol precipitation, the sample was dried. The sample was nixed with 5 μl of 1× loading buffer, heated at 90° C. for 3-minutes, kept on ice, electrophoresed ort a denaturing polyacrylamide gel, dried, and exposed to X-ray film.

The subject of series [4] is HUVEC (Human umbilical vein endothelial cell). Put plainly: Tube formation assay (In Vitro Angiogenesis Assay Kit). It is filed as cell-based. How it is done: HUVEC (Human umbilical vein endothelial cell, American Type Culture Collection, Manassas, Va.) cells were maintained in HAM's F-12K nutrient mixture (Sigma, St. Louis, Mo.) with 10% fetal bovine serum and endothelial cell growth supplement (Sigma, St. Louis, Mo.). Cells were plated onto a 1% gelatinized plastic surface and incubated in the presence of 5% CO2 at 37° C. Tube formation assay was performed using an In Vitro Angiogenesis Assay Kit. (Chemicon, Temecula, Calif.) with following procedures. A 50 μl of the Diluent Buffer-ECMatrix solution mixture was transferred to 96-well tissue culture plate and kept at 37° C. for 1 hour for solidification of the matrix solution. HUVEC cells were seeded onto the surface of the polymerized ECMatrix in each well and incubated in the presence of ethanol (control) or mycolactone (containing 1% of ethanol).

The subject of the next series is murine J779 cell line. To be noted: cited from earlier work.
The subject of series [5] is cancer cell lines (Malme3M, SNU1, MDAMB231, MOLT4, TCCSUP, Hep3B). Put plainly: Mycolactone-induced cancer cell death under light microscope. Format: cell-based. To be noted: mycolactone final 1 μg/ml, 72 hours, compared to not-treated. How it is done: Cancer cell lines used for the experiment was as follows; 2 skin cancer cell lines (Malme3M and SK-Mel-24), 1 breast cancer cell line (MDAMB231), 1 leukemia cell line (MOLT4), 1 stomach cancer cell line (SNU1); 1 bladder cancer cell line (TCCSUP), 8 hepatoma cell lines (SK-Hep1, Hep3B, SNU182, SNU387, SNU398, SNU449, SNU475, and HepG2), 2 colon cancer cell lines (HT-29 and DLD-1), and 1 oral cavity cancer cell line (SCC-15). Cancer cells were cultured in RPMI1640 media containing 10% fetal bovine serum, penicillin (10 unit/ml), and streptomycin (100 μg/ml) in 75 cm^2 flask at 37° C. in the presence of 5% CO2.
After cultivation of cancer cells ([…]) in 6-well plate for 24 hours, mycolactone (final 1 μg/ml) was added and the cell morphology was observed after 72 hours under light microscope. Cancer cells became round up and died after mycolactone treatment.
FIGS. (1a to 1f) show the results in skin cancer (Malme3M), stomach cancer (SNU1), breast cancer (MDAMB231), leukemia (MOLT4), bladder cancer (TCCSUP), and hepatoma (Hep3B). The morphological change of colon and oral cavity cancers is not shown.

Series [6] deals with Rb protein in SNU475 (Rb-positive cancer cell line). The experiment in a line: Western blot of Rb protein expression after oligonucleotide transfection. It is filed as cell-based, human. To be noted: SNU475 transfected with 1 uM oligonucleotide, compared to sense Rb oligonucleotide transfectants. How it is done: An Rb-positive cancer cell SNU475 was cultured overnight in 6-well plate (5×10^6 cancer cells per well) with RPMI1640 medium. Sense or antisense Rb oligonucleotide, as described in Example 4, was transfected to the cultured cancer cells using Lipofectamine-PLUS (Gibco BRL, Grand Island, N.Y.) with the following procedures. Sense or antisense Rb oligonucleotide was diluted (final 1 uM) in fetal bovine serum-free RPMI1640 medium. PLUS reagent (Gibco BRL, NY, USA) was added, mixed well, and incubated at room temperature for 15 minutes. During this incubation, Lipofectamine was diluted in fetal bovine serum-fee RPMI1640 medium in separate test tubes. After 15 minutes, 2 solutions were mixed well and incubated at room temperature for 30 minutes for induction of oligonucleotide-Lipofectamine complex formation. During this incubation, the medium in overnight culture of the cancer cells was changed with fresh fetal bovine serum-free RPMI1640 medium. The solution containing oligonucleotide-Lipofectamine complex was carefully dropped on each culture plate and incubated at 37° C. for 3 hours. […]
Nuclear protein fraction was prepared to examine the Rb expression in SNU475 cell line transfected with sense or antisense Rb oligonucleotide by Western blotting. […] The protein concentration in the supernatant was determined and used for Western blotting. […]

Consider 2 compounds from patent US20040048823A1 (priority 2000, published 2004).

Turning to `CC(=C\C=C\C(C)=C\[C@H](O)[C@@H](O)C[C@H](C)O)/C=C(C)/C=C/C(=O)O[C@H]1CCCC(=O)O[C@@H]([C@@H](C)C/C(C)=C/[C@@H](C)[C@H](O)C[C@@H](C)O)C/C=C(\C)C[C@@H]1C` [mycolactone], in [1], the “CPP32 caspase activation maintained until” value was 24 h. Also, the “CPP32 caspase activation started at” value in [1] came to 4 h. Moreover, in [1], the “cleavage of poly-ADP-ribose polymerase started at” value was 8 h. Also, the “cleavage of poly-ADP-ribose polymerase” value in series [1] (after 48 hours) was “completely cleaved”. In the series with Hep3B cancer cells, the “morphology by TEM” value is on record as “typical apoptosis morphologies”. For the same compound, the “cell death with prolonged treatment” value is given as “apoptosis” in the series on murine L929 cell line (L929, prolonged treatment) and “apoptosis” with murine J779 cell line (J779, prolonged treatment). Also, the cytopathic effects result with murine L929 cell line (L929) is “detaching of cells from culture plates and cell rounding-up”. For the same compound, the “time to G1 cell cycle arrest” value in the series on murine L929 cell line (L929) and with murine J779 cell line (J779) was ≤ 48 h in each case. Moreover, the “tumor tissue inside the body at sacrifice” value in [2] (day 45, T mouse) is reported as “not to have any tumor tissue”. Besides, the “tumor, treated (T) versus control (C) mouse” value in series [2] (first week, 20 μg injected into tumor, 4 days on, 3 days rest) is “no significant difference”. Further, the tumor entry in [2] (fourth week, T mouse, 20 μg injected into tumor) was “disappeared”. The tumor volume in series [2] (second week, T mouse, 20 μg injected into tumor, 105.9 mm^3 at first injection) stood at 63.8 mm^3; in series [2] (third week, T mouse, 20 μg injected into tumor) it was 20.8 mm^3. The “condition of the treated mouse” value in [2] (until the day 45, T mouse) is listed as “healthy”. In [3], the “mRNA expression of bcl-2” value is “very low mRNA expression without significant change”. In series [3], the “mRNA expression of bcl-w” value was “No change”. Also, the “mRNA expression of mcl-1” value in series [3] (after 4 hours, maintained until 24 hours) is reported as “decreased slowly”; in [3] (at 2 hour), “increased transiently”. Moreover, in series [3] (starting at 8 hours until 24 hours), the “mRNA expression of bcl-XL” value was “decrease”. Besides, the “mRNA expression of pro-apoptotic genes (bad, bak, and bax)” value in series [3] (until 24 hours after treatment) is given as “no change”. In addition, the “inhibition of tube formation maintained until” value in series [4] (mycolactone 1 μg) came out at 7.5 h. Also, the tube formation result is reported as “inhibited” in [4] (mycolactone 1 μg, after 4 hour) and “almost completely inhibited” in series [4] (mycolactone 5 μg, after 4 hours). For the same compound, in [5], the “cancer cell death, cell morphology under light microscope” value is given as “Significant cell death”.
On to “antisense Rb oligonucleotide: phosphorothioate-backbone antisense oligonucleotide targeting the protein initiation codon region of human Rb mRNA (antisense GGGTTTTGGGCGGCATGA; all phosphorothioate, sugars by position and methylation of C not given here)”, for which the Rb protein expression result in [6] is recorded as “Significant time-dependent decrease”.
